Like-named read-outs stand apart in the source and are kept apart here.
Assays:
[1] = target: human hepatitis B surface antigen (HBsAg) (Hepatitis B virus genotype C subtype adr, UniProt P12934); test: Anti-HBsAg activity, HBsAg titer by chemiluminescent immunoassay; format: biochemical; details: 100 ppm; for HBsAg antigen titer: untreated 54 IU/ml
Protocol: For the antiviral testing, various concentrations of the chlorine dioxide solutions (agent A, agent B) were prepared and left in respective containers made of synthetic resin for 8 months. Specifically, each of the chlorine dioxide solutions obtained in each of Examples 1 and 2 was placed in a container having an opening with a diameter of 2 cm, and after closing a screw-cap, the container was left at room temperature for 8 months. Subsequently, an antiviral activity effect of the solution was examined. As controls, sodium hypochlorite (agent C), stabilized chlorine dioxide (sodium chlorite) (agent D), and povidone-iodine (agent E) were used. The agents C to E were not preserved for 8 months, and subjected to the test immediately after the purchase.
Each agent was added to human hepatitis B surface antigen (HBsAg), and after 1, 2, 3 or 4 days of sensitization, the agent was neutralized with a sodium thiosulfate solution, and HBsAg titer was measured using a chemiluminescent immunoassay “Architect-HBsAg (manufactured by Dainabot Co., Ltd.)”. An anti-HBsAg activity of the agent was evaluated.

[2] = test system: canine parvovirus <CPV(Y-1)>; test: Antiviral testing (canine parvovirus), TCID50 by swine hemagglutination test, CRFK cells; format: cell-based

human hepatitis B surface antigen (HBsAg), sequence (P12934 whole entry): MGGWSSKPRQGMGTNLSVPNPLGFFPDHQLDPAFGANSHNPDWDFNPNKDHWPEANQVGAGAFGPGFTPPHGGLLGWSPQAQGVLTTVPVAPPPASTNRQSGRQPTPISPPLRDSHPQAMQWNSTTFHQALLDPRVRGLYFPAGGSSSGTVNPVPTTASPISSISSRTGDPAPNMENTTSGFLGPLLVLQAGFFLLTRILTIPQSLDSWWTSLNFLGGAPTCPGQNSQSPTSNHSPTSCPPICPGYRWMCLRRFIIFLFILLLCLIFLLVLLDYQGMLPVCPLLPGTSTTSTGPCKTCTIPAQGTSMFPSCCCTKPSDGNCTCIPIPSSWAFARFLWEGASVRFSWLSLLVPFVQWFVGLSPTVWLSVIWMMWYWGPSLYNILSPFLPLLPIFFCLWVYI

Row | Compound | anti-HBsAg activity ([1]; 1 to 4 days) | HBsAg antigen titer ([1]; sensitized time 1 day) [IU/ml] | HBsAg antigen titer ([1]; sensitized time 2 days) [IU/ml] | HBsAg antigen titer ([1]; sensitized time 3 days) [IU/ml] | HBsAg antigen titer ([1]; sensitized time 4 days) [IU/ml] | CPV infectivity titer remaining ([2]; 10 ppm, after 180 seconds) [TCID50] | decrease in CPV infectivity titer ([2]; 100 ppm, after 120 seconds) [%] | decrease in CPV infectivity titer [2]
1 | OCl [sodium hypochlorite, Sodium hypochlorite] | absence of an anti-HBsAg activity | 50 | 51 | 51 | 49 | 100 | ≥ 99.99 | 
2 | sodium chlorite [stabilized chlorine dioxide solution] |  |  |  |  |  |  |  | no decrease in the infectivity titer was observed

Source: patent publication US8545898B2, “Broad-spectrum antiviral composition with excellent preservation stabilty” (Taiko Pharmaceutical Co., Ltd., priority 2007, dated 2013)
